Experiments:
Type in all cases: in vivo
[1] = system: Euschistus heros (Neotropical Brown Stink Bug); test: Euschistus heros (neotropical brown stink bug), sprayed soybean leaf; settings: 120 h, application rate of 200 ppm, N-2 nymphs on soybean leaf, 5 days after infestation
Description: Example B3: Euschistus heros (Neotropical Brown Stink Bug)
Soybean leaf on agar in 24-well microtiter plates were sprayed with aqueous test solutions prepared from 10′000 ppm DMSO stock solutions. After drying the leaf were infested with N-2 nymphs. The samples were assessed for mortality in comparison to untreated samples 5 days after infestation.

[2] = system: Myzus persicae (Green Peach Aphid); test: Myzus persicae (green peach aphid), sprayed sunflower leaf discs; settings: foliar, 144 h, application rate of 200 ppm, mixed ages on sunflower leaf discs, 6 days after infestation
Description: Example B4: Myzus persicae (Green Peach Aphid)
(§1) Sunflower leaf discs were placed on agar in a 24-well microtiter plate and sprayed with aqueous test solutions prepared from 10′000 ppm DMSO stock solutions. After drying, the leaf discs were infested with an aphid population of mixed ages. The samples were assessed for mortality 6 days after infestation.

[3] = system: Plutella xylostella (Diamond Back Moth); test: Plutella xylostella (diamond back moth), treated artificial diet; settings: 120 h, application rate of 200 ppm, L2 larvae on artificial diet, 5 days after infestation, read-out: effect in at least one of the two categories (mortality or growth inhibition)
Outline: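 Artificial diet treated with aqueous dilutions of DMSO stocks (10′000 ppm stock), dried, then infested with 10-15 L2 larvae per well. Mortality and growth inhibition assessed versus untreated controls 5 days after infestation.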

[4] = system: Myzus persicae (Green Peach Aphid); test: Myzus persicae (green peach aphid), roots of pea seedlings in test solution; settings: 144 h, test rate of 24 ppm, roots of infested pea seedlings in test solution, 6 days
Description: Example B5: Myzus persicae (Green Peach Aphid)
Roots of pea seedlings infested with an aphid population of mixed ages were placed directly in the aqueous test solutions prepared from 10′000 DMSO stock solutions. The samples were assessed for mortality 6 days after placing seedlings in test solutions.

[5] = system: Diabrotica balteata (Corn Root Worm); test: Diabrotica balteata (corn root worm), sprayed maize sprouts; settings: 96 h, application rate of 200 ppm, L2 larvae on maize sprouts, 4 days after infestation
Description: Example B2: Diabrotica balteata (Corn Root Worm)
Maize sprouts, placed on an agar layer in 24-well microtiter plates were treated with aqueous test solutions prepared from 10′000 ppm DMSO stock solutions by spraying. After drying, the plates were infested with L2 larvae (6 to 10 per well). The samples were assessed for mortality and growth inhibition in comparison to untreated samples 4 days after infestation.

[6] = system: Bemisia tabaci (Cotton White Fly); test: Bemisia tabaci (cotton white fly), sprayed cotton leaf discs; settings: foliar, 144 h, application rate of 200 ppm, adult white flies on cotton leaf discs, 6 days after incubation
Description: Example B1: Bemisia tabaci (Cotton White Fly)
Cotton leaf discs were placed on agar in 24-well microtiter plates and sprayed with aqueous test solutions prepared from 10′000 ppm DMSO stock solutions. After drying the leaf discs were infested with adult white flies. The samples were checked for mortality 6 days after incubation.

[7] = system: Spodoptera littoralis (Egyqptian Cotton Leaf Worm); test: Spodoptera littoralis (Egyptian cotton leaf worm), compound in agar taken up by lettuce roots; settings: 144 h, test rate of 12.5 ppm, uptake by lettuce roots from agar, 6 days after infestation, read-out: effect in at least one of the three categories (mortality, anti-feedancy, or growth inhibition)
Excerpt: Example B8: Spodoptera littoralis (Egyqptian Cotton Leaf Worm)
Test compounds were applied by pipette from 10′000 ppm DMSO stock solutions into 24-well plates and mixed with agar. Lettuce seeds were placed on the agar and the multi well plate was closed by another plate which contains also agar. After 7 days the roots have absorbed the compound and the lettuce has grown into the lid plate. The lettuce leafs were now cut off into the lid plate. Spodoptera eggs were pipetted through a plastic stencil on a humid gel blotting paper and the plate closed with it. The samples were assessed for mortality, anti-feedant effect and growth inhibition in comparison to untreated samples 6 days after infestation.
The following compounds gave an effect of at least 80% in at least one of the three categories (mortality, anti-feedancy, or growth inhibition) at a test rate of 12.5 ppm: […]

[8] = system: Spodoptera littoralis (Egyqptian Cotton Leaf Worm); test: Spodoptera littoralis (Egyptian cotton leaf worm), sprayed cotton leaf discs; settings: foliar, 72 h, application rate of 200 ppm, L1 larvae on cotton leaf discs, 3 days after infestation
Outline: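 Cotton leaf discs on agar were sprayed with aqueous dilutions made from 10′000 ppm DMSO stocks, then infested after drying with five L1 larvae. Mortality, anti-feedant effect and growth inhibition were scored against untreated discs 3 days after infestation. Control means at least one of these exceeds the untreated sample.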

[9] = system: Frankliniella occidentalis (Western Flower Thrips); test: Frankliniella occidentalis (western flower thrips), sprayed sunflower leaf discs; settings: foliar, 168 h, application rate of 200 ppm, mixed ages on sunflower leaf discs, 7 days after infestation
Description: Example B11: Frankliniella occidentalis (Western Flower Thrips)
as §1, with “in” for “in a”, “plates” for “plate”, “[…]” for “10′000 ppm”, “drying” for “drying,”, “a Frankliniella” for “an aphid”, “7” for “6”

CCS(=O)(=O)c1cc(-c2cncc(Cl)c2)cnc1-c1nc2cc(C(F)(F)F)ncc2n1C [Compound P3]
≥ 80%: mortality at 200 ppm [1] | mortality at 200 ppm [2] | percent effect (mortality or growth inhibition) at 200 ppm [3] | mortality at 24 ppm [4] | mortality at 200 ppm [5]

CCS(=O)(=O)c1cc(-c2cnn(C)c2)cnc1-c1nc2cc(C(F)(F)F)ncc2n1C [Compound P6]
≥ 80%: mortality at 200 ppm [6] | mortality at 200 ppm [1] | mortality at 200 ppm [2] | percent effect (mortality or growth inhibition) at 200 ppm [3] | mortality at 24 ppm [4] | mortality at 200 ppm [5] | percent control (mortality, anti-feedancy or growth inhibition) at 12.5 ppm [7] | percent control (mortality, anti-feedant effect or growth inhibition) at 200 ppm [8]

CCS(=O)(=O)c1cc(-c2cnc(OC)nc2)cnc1-c1nc2cc(C(F)(F)F)ncc2n1C [Compound P9]
≥ 80%: mortality at 200 ppm [2] | percent effect (mortality or growth inhibition) at 200 ppm [3] | mortality at 24 ppm [4] | percent control (mortality, anti-feedant effect or growth inhibition) at 200 ppm [8]

CCS(=O)(=O)c1cc(-c2ncc(C)cn2)cnc1-c1nc2cc(C(F)(F)F)ncc2n1C [Compound P22]
≥ 80%: mortality at 200 ppm [6] | mortality at 200 ppm [1] | mortality at 200 ppm [2] | percent effect (mortality or growth inhibition) at 200 ppm [3] | mortality at 24 ppm [4] | mortality at 200 ppm [5] | percent control (mortality, anti-feedancy or growth inhibition) at 12.5 ppm [7] | percent control (mortality, anti-feedant effect or growth inhibition) at 200 ppm [8]

CCS(=O)(=O)c1cc(-n2ccccc2=O)cnc1-c1nc2cc(C(F)(F)F)ncc2n1C [Compound P26]
≥ 80%: mortality at 200 ppm [1] | mortality at 200 ppm [2] | percent effect (mortality or growth inhibition) at 200 ppm [3] | mortality at 24 ppm [4] | mortality at 200 ppm [5]

CCS(=O)(=O)c1cc(-c2ncccc2Cl)cnc1-c1nc2cc(C(F)(F)F)ncc2n1C [Compound P32]
≥ 80%: mortality at 200 ppm [1] | mortality at 200 ppm [2] | percent effect (mortality or growth inhibition) at 200 ppm [3] | mortality at 200 ppm [5] | percent control (mortality, anti-feedancy or growth inhibition) at 12.5 ppm [7] | mortality at 200 ppm [9] | percent control (mortality, anti-feedant effect or growth inhibition) at 200 ppm [8]

CCS(=O)(=O)c1cc(-c2ccnnc2)cnc1-c1nc2cc(C(F)(F)F)ncc2n1C [Compound P33]
≥ 80%: mortality at 200 ppm [6] | mortality at 200 ppm [1] | mortality at 200 ppm [2] | mortality at 24 ppm [4] | mortality at 200 ppm [5]

CCS(=O)(=O)c1cc(-c2cccn3ncnc23)cnc1-c1nc2cc(C(F)(F)F)ncc2n1C [Compound P34]
≥ 80%: mortality at 200 ppm [1] | mortality at 200 ppm [2] | percent effect (mortality or growth inhibition) at 200 ppm [3] | mortality at 24 ppm [4] | mortality at 200 ppm [5] | percent control (mortality, anti-feedant effect or growth inhibition) at 200 ppm [8]

CCS(=O)(=O)c1cc(-c2cnc3nc(C)ccn23)cnc1-c1nc2cc(C(F)(F)F)ncc2n1C [Compound P37]
≥ 80%: mortality at 200 ppm [1] | mortality at 200 ppm [2] | percent effect (mortality or growth inhibition) at 200 ppm [3] | mortality at 24 ppm [4] | mortality at 200 ppm [5]

CCS(=O)(=O)c1cc(-c2ncccc2NC(=O)C(F)(F)F)cnc1-c1nc2cc(C(F)(F)F)ncc2n1C [Compound P49]
≥ 80%: mortality at 200 ppm [1] | mortality at 200 ppm [2] | mortality at 24 ppm [4]

CCS(=O)(=O)c1cc(-c2ccnc(C)c2)cnc1-c1nc2cc(C(F)(F)F)ncc2n1C [Compound P53]
≥ 80%: mortality at 200 ppm [1] | mortality at 200 ppm [2] | percent effect (mortality or growth inhibition) at 200 ppm [3] | mortality at 24 ppm [4] | percent control (mortality, anti-feedancy or growth inhibition) at 12.5 ppm [7] | percent control (mortality, anti-feedant effect or growth inhibition) at 200 ppm [8]

CCS(=O)(=O)c1cc(-c2cnc(N)nc2C)cnc1-c1nc2cc(C(F)(F)F)ncc2n1C [Compound P58]
≥ 80%: mortality at 200 ppm [1] | mortality at 200 ppm [2] | percent effect (mortality or growth inhibition) at 200 ppm [3] | mortality at 24 ppm [4] | mortality at 200 ppm [5]

CCS(=O)(=O)c1cc(-c2cncs2)cnc1-c1nc2cc(C(F)(F)F)ncc2n1C [Compound P60]
≥ 80%: mortality at 200 ppm [1] | mortality at 200 ppm [2] | percent effect (mortality or growth inhibition) at 200 ppm [3] | mortality at 24 ppm [4] | mortality at 200 ppm [5] | percent control (mortality, anti-feedant effect or growth inhibition) at 200 ppm [8]

CCS(=O)(=O)c1cc(-c2ncncc2F)cnc1-c1nc2cc(C(F)(F)F)ncc2n1C [Compound P61]
≥ 80%: mortality at 200 ppm [1] | mortality at 200 ppm [2] | percent effect (mortality or growth inhibition) at 200 ppm [3] | mortality at 24 ppm [4] | mortality at 200 ppm [5] | percent control (mortality, anti-feedancy or growth inhibition) at 12.5 ppm [7] | percent control (mortality, anti-feedant effect or growth inhibition) at 200 ppm [8]

CCS(=O)(=O)c1cc(-c2cncc(C#N)c2)cnc1-c1nc2cc(C(F)(F)F)ncc2n1C [Compound P67]
≥ 80%: mortality at 200 ppm [6] | mortality at 200 ppm [1] | mortality at 200 ppm [2] | percent effect (mortality or growth inhibition) at 200 ppm [3] | mortality at 24 ppm [4] | mortality at 200 ppm [5]

CCS(=O)(=O)c1cc(-n2cccn2)cnc1-c1nc2cc(C(F)(F)F)ncc2n1C [Compound P84]
≥ 80%: mortality at 200 ppm [1] | mortality at 200 ppm [2] | percent effect (mortality or growth inhibition) at 200 ppm [3] | mortality at 24 ppm [4] | mortality at 200 ppm [5] | percent control (mortality, anti-feedancy or growth inhibition) at 12.5 ppm [7] | percent control (mortality, anti-feedant effect or growth inhibition) at 200 ppm [8]

CCS(=O)(=O)c1cc(-n2cnc(C(F)(F)F)c2)cnc1-c1nc2cc(C(F)(F)F)ncc2n1C [Compound P87]
≥ 80%: mortality at 200 ppm [2] | mortality at 24 ppm [4] | mortality at 200 ppm [5]

CCS(=O)(=O)c1cc(-c2ccc(Cl)nc2)cnc1-c1nc2cc(C(F)(F)F)ncc2n1C [Compound P96]
≥ 80%: mortality at 200 ppm [6] | mortality at 200 ppm [1] | mortality at 200 ppm [2] | percent effect (mortality or growth inhibition) at 200 ppm [3] | mortality at 200 ppm [5] | percent control (mortality, anti-feedancy or growth inhibition) at 12.5 ppm [7] | mortality at 200 ppm [9] | percent control (mortality, anti-feedant effect or growth inhibition) at 200 ppm [8]

CCS(=O)(=O)c1cc(-n2ccc(C)n2)cnc1-c1nc2cc(C(F)(F)F)ncc2n1C [Compound P102]
≥ 80%: mortality at 200 ppm [1] | mortality at 200 ppm [2] | percent effect (mortality or growth inhibition) at 200 ppm [3] | mortality at 24 ppm [4] | mortality at 200 ppm [5] | percent control (mortality, anti-feedant effect or growth inhibition) at 200 ppm [8]

CCS(=O)(=O)c1cc(-c2nccc(OC)n2)cnc1-c1nc2cc(C(F)(F)F)ncc2n1C [Compound P104]
≥ 80%: mortality at 200 ppm [1] | mortality at 200 ppm [2] | percent effect (mortality or growth inhibition) at 200 ppm [3] | mortality at 200 ppm [5] | percent control (mortality, anti-feedancy or growth inhibition) at 12.5 ppm [7] | mortality at 200 ppm [9] | percent control (mortality, anti-feedant effect or growth inhibition) at 200 ppm [8]

CCS(=O)(=O)c1cc(-c2cc(OC)ccn2)cnc1-c1nc2cc(C(F)(F)F)ncc2n1C [Compound P109]
≥ 80%: mortality at 200 ppm [1] | mortality at 200 ppm [2] | percent effect (mortality or growth inhibition) at 200 ppm [3] | mortality at 24 ppm [4] | mortality at 200 ppm [5] | percent control (mortality, anti-feedant effect or growth inhibition) at 200 ppm [8]
